# Assay results reported in ChEMBL document CHEMBL5512603, “Development of de-novo coronavirus 3-chymotrypsin-like protease (3CLpro) inhibitors since COVID-19 outbreak: A strategy to tackle challenges of persistent virus infection” (Eur J Med Chem, 2024).
# Columns and labels:
# SARS-CoV-2 [1] = test: Antiviral activity against SARS-CoV-2 infected in African green monkey Vero cells; type: functional, organism-based; conditions: Severe acute respiratory syndrome coronavirus 2, Vero
# [2] = molecular target: T1, Replicase polyprotein 1ab (Severe acute respiratory syndrome coronavirus 2, UniProt P0DTD1); test: Inhibition of recombinant SARS-CoV-2 3CLp using fluorogenic substrate by microplate reader
# [3] = Oral bioavailability in Sprague-Dawley rat at 10 mg/kg; type: ADME, organism-based; conditions: in vivo
# SARS-CoV-2 [4] = test: Antiviral activity against SARS-CoV-2; type: functional, organism-based; conditions: Severe acute respiratory syndrome coronavirus 2
# [5] = molecular target: T1, Replicase polyprotein 1ab; test: Inhibition of SARS-CoV-2 recombinant 3CLpro using fluorogenic substrate (Dabcyl-KTSAVLQ]SGFRK M-E
# [6] = molecular target: Protein cereblon/Replicase polyprotein 1ab (Severe acute respiratory syndrome coronavirus 2, UniProt P0DTD1+Q96SW2); test: PROTAC activity at SARS-CoV-2 Main protease/CRBN (unknown origin) in SARS-CoV-2 infected african green monkey Vero cell assessed as inhibition of virus-mediated cytopathic effect measured after 72 hrs; type: cell-based
# Protein cereblon/Replicase polyprotein 1ab, sequence (Q96SW2 whole entry, other chains not shown): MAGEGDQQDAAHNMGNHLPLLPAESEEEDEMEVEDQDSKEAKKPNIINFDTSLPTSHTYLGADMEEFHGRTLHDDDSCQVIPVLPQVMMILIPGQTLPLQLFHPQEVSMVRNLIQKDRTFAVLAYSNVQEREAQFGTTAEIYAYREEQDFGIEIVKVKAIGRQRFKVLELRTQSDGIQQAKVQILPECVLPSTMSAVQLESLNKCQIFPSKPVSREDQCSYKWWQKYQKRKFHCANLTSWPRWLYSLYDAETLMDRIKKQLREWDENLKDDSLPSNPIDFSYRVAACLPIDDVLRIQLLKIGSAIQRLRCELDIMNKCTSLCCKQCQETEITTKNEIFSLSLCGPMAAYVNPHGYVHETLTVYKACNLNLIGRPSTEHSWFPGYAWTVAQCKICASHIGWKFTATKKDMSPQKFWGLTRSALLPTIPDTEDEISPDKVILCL
# SARS-CoV-2 [7] = test: Antiviral activity against wild type SARS-CoV-2 infected in human Calu-3 cells; type: functional, organism-based; conditions: Severe acute respiratory syndrome coronavirus 2, Calu-3
# [8] = molecular target: von Hippel-Lindau disease tumor suppressor-SARS-Cov-2 polyprotein (Severe acute respiratory syndrome coronavirus 2, UniProt P0DTD1+P40337); test: PROTAC activity at SARS-CoV-2 Main protease/VHL (unknown origin) in SARS-CoV-2 infected african green monkey Vero cell assessed as inhibition of virus-mediated cytopathic effect measured after 72 hrs; type: cell-based
# von Hippel-Lindau disease tumor suppressor-SARS-Cov-2 polyprotein, sequence (P40337 whole entry, other chains not shown): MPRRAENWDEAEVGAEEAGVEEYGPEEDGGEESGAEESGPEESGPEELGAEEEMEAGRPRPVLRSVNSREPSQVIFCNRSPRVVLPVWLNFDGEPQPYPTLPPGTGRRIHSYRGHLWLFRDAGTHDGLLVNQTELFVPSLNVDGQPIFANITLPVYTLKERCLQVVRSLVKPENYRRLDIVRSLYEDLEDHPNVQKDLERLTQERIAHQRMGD
# SARS-CoV-2 [9] = test: Antiviral activity against SARS-CoV-2 infected in HAPEpIC cells at 0.01 MOI assessed as reduction in viral RNA copies by RT-qPCR analysis; type: functional, organism-based; conditions: Severe acute respiratory syndrome coronavirus 2
# SARS-CoV-2 [10] = test: Antiviral activity against SARS-CoV-2 infected in African green monkey Vero E6 cells at 0.1 MOI assessed as inhibition of virus induced cytopathic effect by CCK8 assay; type: functional, organism-based; conditions: Severe acute respiratory syndrome coronavirus 2, Vero C1008
# [11] = Oral bioavailability in Sprague-Dawley rat at 20 mg/kg; type: ADME, organism-based; conditions: in vivo
# [12] = Bioavailability in Sprague-Dawley rat at 20 mg/kg, ip; type: ADME, organism-based; conditions: in vivo
# [13] = molecular target: T1, Replicase polyprotein 1ab; test: Inhibition of SARS-CoV-2 3CLp using fluorescent substrate by FRET assay
# SARS-CoV-2 [14] = test: Antiviral activity against SARS-CoV-2 infected in African green monkey Vero E6 cells assessed as inhibition of virus induced cytopathic effect by CellTiter-Glo luminescent cell viability assay; type: functional, organism-based; conditions: Severe acute respiratory syndrome coronavirus 2, Vero C1008
# [15] = molecular target: T1, Replicase polyprotein 1ab; test: Inhibition of 2019-nCoV-2 3CLp using fluorescent substrate by FRET assay
# [16] = Cytotoxicity against African green monkey Vero E6 cells; type: toxicity, cell-based, Vero C1008; conditions: chlorocebus sabaeus
smiles,measurement,setting,value
C[C@H](NC(=O)[C@@H](c1cccnc1)N(C(=O)C(Cl)Cl)c1ccc(-c2ccccc2)cc1)c1ccccc1,EC50,SARS-CoV-2 [1],900 nM
O=C[C@H](C[C@@H]1CCNC1=O)NC(=O)[C@@H]1[C@H]2CCC[C@H]2CN1C(=O)COc1ccc(Cl)c(Cl)c1,IC50,[2],19 nM
same,bioavailability,[3],5.1%
O=C[C@H](C[C@@H]1CCNC1=O)NC(=O)[C@@H]1[C@H]2CCC[C@H]2CN1C(=O)COc1ccc(Cl)cc1,IC50,[2],9 nM
same,bioavailability,[3],7.2%
CC1(C)[C@@H]2[C@@H](C(=O)N[C@H](C=O)C[C@@H]3CCNC3=O)N(C(=O)COc3ccc(Cl)cc3)C[C@@H]21,IC50,[2],9 nM
same,bioavailability,[3],4.8%
COc1cc(O)c2c(c1)O[C@H](c1cc(O)c(O)c(O)c1)[C@@H](O)C2=O,EC50,SARS-CoV-2 [4],11500 nM
CC1(C)[C@@H]2[C@@H](C(=O)N[C@H](C=O)C[C@@H]3CCNC3=O)N(C(=O)COc3ccc(Cl)cc3Cl)C[C@@H]21,IC50,[2],10 nM
same,bioavailability,[3],4.1%
COc1cc(O)c2c(=O)c(O)c(-c3cc(O)c(O)c(O)c3)oc2c1,EC50,SARS-CoV-2 [4],12600 nM
C[C@H](NC(=O)[C@@H](c1cccnc1)N(C(=O)C(Br)(Br)Br)c1ccc(-c2ccccc2)cc1)c1ccccc1,EC50,SARS-CoV-2 [1],580 nM
CNC(=O)c1cc(Br)cc([N+](=O)[O-])c1N[C@H]1CCCC[C@H]1NC(=O)c1cncc2cc(O)ccc12,IC50,[5],120000 nM
O=c1c(O)c(-c2cc(O)c(O)c(O)c2)oc2cc(OP(=O)(Oc3ccccc3)Oc3ccccc3)cc(O)c12,EC50,SARS-CoV-2 [4],3150 nM
Cc1c(COC(=O)N[C@@H](CC(C)C)C(=O)N[C@@H](C[C@@H]2CCNC2=O)C(O)S(=O)(=O)O)nnn1CCOCCOCCOCCC(=O)Nc1cccc2c1C(=O)N(C1CCC(=O)NC1=O)C2=O (some centres undefined),EC50,[6],2150 nM
COc1ccc(/C=C(\C#N)C(=O)N(c2ccc(-c3ccccc3)cc2)[C@@H](C(=O)N[C@@H](C)c2ccccc2)c2cccnc2)cc1,EC50,SARS-CoV-2 [7],6470 nM
Cc1ncsc1-c1ccc(CNC(=O)[C@@H]2C[C@@H](O)CC2C(=O)[C@@H](NC(=O)CCC(=O)NCCOCCn2nnc(COC(=O)N[C@@H](CC(C)C)C(=O)N[C@@H](C[C@@H]3CCNC3=O)C(O)S(=O)(=O)O)c2C)C(C)(C)C)cc1 (some centres undefined),EC50,[8],10100 nM
Cc1ncsc1-c1ccc(CNC(=O)[C@@H]2C[C@@H](O)CN2C(=O)[C@@H](NC(=O)CCOCCOCCOCCn2nnc(COc3ccc(OC(=O)N[C@@H](CC(C)C)C(=O)N[C@@H](C[C@@H]4CCNC4=O)C(O)S(=O)(=O)O)cc3)c2C)C(C)(C)C)cc1 (some centres undefined),EC50,[8],210 nM
CNC(=O)[C@@H](Cc1cccc(F)c1)NC(=O)C1CN(C(=O)c2cncc3cccc(O)c23)CCN1Cc1ccc(Cl)cc1Cl (some centres undefined),IC50,[5],165000 nM
CC1(C)[C@@H]2[C@H]1CN(C(=O)COc1ccc(OC(F)(F)F)cc1)[C@H]2C(=O)N[C@@H](C=O)C[C@H]1CCNC1=O,EC50,SARS-CoV-2 [9],1.2 nM
same,EC50,SARS-CoV-2 [10],860 nM
same,bioavailability,[11],11.2%
same,bioavailability,[12],78%
CCC[C@H]1C(=O)N2C[C@]3(C[C@H]2C#N)C(=O)Nc2ccc(cc23)CCCCCN1C(=O)c1cc2c(F)cc(F)c(F)c2[nH]1,IC50,[13],< 100 nM
same,EC50,SARS-CoV-2 [14],< 100 nM
CC(C)[C@H]1C(=O)N2C[C@]3(C[C@H]2C#N)C(=O)Nc2ccc(cc23)CCCCCN1C(=O)c1cc2c(F)cc(F)c(F)c2[nH]1,IC50,[13],< 100 nM
same,EC50,SARS-CoV-2 [14],< 100 nM
CC(C)(C)NC(=O)[C@@H](c1cccnc1)N(C(=O)c1cnco1)c1ccc(-c2ccccc2)cc1,IC50,[15],4970 nM
same,CC50,[16],67000 nM
N#C[C@@H]1C[C@]23CN1C(=O)[C@H](c1ccccc1)N(C(=O)C1CN(c4ccc(F)cc4)N=N1)CCCCCc1ccc(c2c1)NC3=O (some centres undefined),IC50,[13],< 100 nM
same,EC50,SARS-CoV-2 [14],> 1000 nM
CNC(=O)c1cc(C)cc([N+](=O)[O-])c1N1CC[C@]2(CCN(C(=O)c3cncc4cc(O)ccc34)C2)C1,IC50,[5],49500 nM
CC(C)CCOc1cc(O)c2c(=O)c(O)c(-c3cc(O)c(O)c(O)c3)oc2c1,IC50,[13],1920 nM
same,EC50,SARS-CoV-2 [4],31500 nM
CCOc1cc(O)c2c(=O)c(O)c(-c3cc(O)c(O)c(O)c3)oc2c1,IC50,[13],740 nM
same,EC50,SARS-CoV-2 [4],51000 nM
CC(C)[C@H]1C(=O)N2C[C@]3(C[C@H]2C#N)C(=O)Nc2ccc(cc23)CCCCCN1C(=O)c1cc2c(F)cc(F)cc2[nH]1,IC50,[13],< 100 nM
same,EC50,SARS-CoV-2 [14],< 100 nM
Cc1ncsc1-c1ccc(CNC(=O)[C@@H]2C[C@@H](O)CN2C(=O)[C@@H](NC(=O)CCOCCOCCOCCn2nnc(COc3ccc(OC(=O)N[C@@H](CC(C)C)C(=O)N[C@H](C=O)C[C@@H]4CCNC4=O)cc3)c2C)C(C)(C)C)cc1,EC50,[8],80 nM
CNC(=O)c1cc(Br)cc([N+](=O)[O-])c1N[C@@H]1CCC[C@H](NC(=O)c2cncc3cccc(O)c23)C1,IC50,[5],62500 nM
CC(C)(C)NC(=O)[C@@H](c1cnccn1)N(C(=O)c1ccco1)c1ccc(-c2ccccc2)cc1,IC50,[15],280 nM
same,CC50,[16],> 200000 nM
CC(C)[C@H]1C(=O)N2C[C@]3(C[C@H]2C#N)C(=O)Nc2ccc(cc23)CCCCCN1C(=O)C1CN(c2ccccc2)N=N1 (some centres undefined),IC50,[13],< 100 nM
same,EC50,SARS-CoV-2 [14],< 100 nM
Cc1ncsc1-c1ccc(CNC(=O)[C@@H]2C[C@@H](O)CN2C(=O)[C@@H](NC(=O)CCOCCOCCOCCn2nnc(COC3CCC(OC(=O)N[C@@H](CC(C)C)C(=O)N[C@H](C=O)C[C@@H]4CCNC4=O)CC3)c2C)C(C)(C)C)cc1 (some centres undefined),EC50,[8],350 nM
CC(C)[C@H]1C(=O)N2C[C@]3(C[C@H]2C#N)C(=O)Nc2ccc(cc23)CCCCCN1C(=O)c1cc2ccc(C(F)(F)F)cc2[nH]1,IC50,[13],100 nM
same,EC50,SARS-CoV-2 [14],< 100 nM
CC1COP(=O)(Oc2cc(O)c3c(=O)c(O)c(-c4cc(O)c(O)c(O)c4)oc3c2)OC1 (centres undefined),IC50,[13],6620 nM
same,EC50,SARS-CoV-2 [4],33400 nM
O=C1c2c(O)cc(OP(=O)(Oc3ccccc3)Oc3ccccc3)cc2O[C@H](c2cc(O)c(O)c(O)c2)[C@H]1O,EC50,SARS-CoV-2 [4],9030 nM
O=c1c(O)c(-c2cc(O)c(O)c(O)c2)oc2cc(OCC3CCCC3)cc(O)c12,IC50,[13],2450 nM
same,EC50,SARS-CoV-2 [4],7560 nM
O=C[C@@H](C[C@H]1CCNC1=O)NC(=O)[C@H]1[C@@H]2CCC[C@@H]2CN1C(=O)COc1ccc(Cl)cc1Cl,EC50,SARS-CoV-2 [9],1.1 nM
same,EC50,SARS-CoV-2 [10],540 nM
same,bioavailability,[11],14.6%
same,bioavailability,[12],76.2%
CC(C)(C)NC(=O)[C@@H](c1cccnc1)N(C(=O)c1ccno1)c1ccc(-c2ccccc2)cc1,IC50,[15],2470 nM
same,CC50,[16],> 200000 nM
Cc1ncsc1-c1ccc(CNC(=O)[C@@H]2C[C@@H](O)CN2C(=O)[C@@H](NC(=O)CCOCCOCCOCCn2nnc(COC(=O)N[C@@H](CC(C)C)C(=O)N[C@H](C=O)C[C@@H]3CCNC3=O)c2C)C(C)(C)C)cc1,EC50,[8],950 nM
CC(C)C[C@H](NC(=O)Oc1ccc(OCc2cn(CCCCCOCC(=O)Nc3cccc4c3C(=O)N(C3CCC(=O)NC3=O)C4=O)nn2)cc1)C(=O)N[C@H](CO)C[C@@H]1CCNC1=O (some centres undefined),EC50,[6],250 nM
Cc1ncsc1-c1ccc(CNC(=O)[C@@H]2C[C@@H](O)CN2C(=O)[C@@H](NC(=O)CCC(=O)NCCOCCn2nnc(COc3ccc(OC(=O)N[C@@H](CC(C)C)C(=O)N[C@H](C=O)C[C@@H]4CCNC4=O)cc3)c2C)C(C)(C)C)cc1,EC50,[8],120 nM
Cc1c(COC2CCC(OC(=O)N[C@@H](CC(C)C)C(=O)N[C@H](C=O)C[C@@H]3CCNC3=O)CC2)nnn1CCOCCNC(=O)CCC(=O)Nc1cccc2c1C(=O)N(C1CCC(=O)NC1=O)C2=O (some centres undefined),EC50,[6],620 nM
Cc1ncsc1-c1ccc(CNC(=O)[C@@H]2C[C@@H](O)CN2C(=O)[C@@H](NC(=O)CCOCCOCCOCCn2nnc(COc3ccc(OC(=O)N[C@@H](CC(C)C)C(=O)N[C@H](CO)C[C@@H]4CCNC4=O)cc3)c2C)C(C)(C)C)cc1,EC50,[8],750 nM
O=C1c2c(O)cc(O)cc2O[C@H](c2cc(O)c(O)c(O)c2)[C@H]1O [AMPELOPSIN],EC50,SARS-CoV-2 [4],13600 nM
